Test results reported in PMC4052314, “New Cyclic Cystine Bridged Peptides from the Sponge Suberites waedoensis” (Marine Drugs, 2014).
Positions of bridges follow the written chain, without caps; N, C: chain ends. Residues, ends and D or L forms follow the SMILES beside them.

Experiments:
[1] = test system: K562 cell-line; assay: Cytotoxicity assay, K562 cell line; format: cell-based; details: literature protocols [21],[22]
Protocol: (§1) The cytotoxicity assays were performed in accord with literature protocols. The Na^+/K^+-ATPase inhibition assay was performed according to the previously described method.

[2] = test system: A549 cell-line; assay: Cytotoxicity assay, A549 cell line; format: cell-based; details: literature protocols [21],[22]
Protocol: as §1

[3] = biological target: Na+/K+-ATPase; assay: Na+/K+-ATPase inhibition assay; format: biochemical; details: previously described method [23]
Protocol: as §1

[4] = test system: K562 cell-line; details: cited from earlier work
Source text: (§2) In our search for bioactive metabolites from sponges found in Korean waters, we recently reported the structural determination of gombamide A, a cyclic thiohexapeptide from Clathria gombawuiensis. […] In our continuing search for bioactive metabolites in sponges, we report here the isolation and structural determinations of chujamides A (1) and B (2), new cyclic cystine bridged peptides from the sponge Suberites waedoensis (Figure 1). These proline- ...

[5] = test system: Na+/K+-ATPase; details: cited from earlier work
Source text: as §2

[6] = test system: A549 cell-line; details: cited from earlier work
Source text: as §2

Q: What does the source list for `CC[C@H](C)[C@H](NC(=O)CN)C(=O)N[C@H]1CSSC[C@@H](C(=O)O)NC(=O)[C@H]([C@@H](C)CC)NC(=O)[C@@H]2CCCN2C(=O)[C@H](CC(C)C)NC(=O)[C@H](Cc2ccccc2)NC(=O)[C@@H]2CCCN2C(=O)[C@@H]2CCCN2C(=O)[C@H](Cc2ccc(O)cc2)NC(=O)[C@@H]2CCCN2C1=O` [Compound 1, chujamide A] (H-GICPYPPFLPIC-OH; disulfide 3-12)?
A: LC50, cytotoxicity toward K562 [1]: 37.0 µM; LC50, cytotoxicity toward A549 [2]: 10.1 µM

Q: Which IC50 [3] does the source give for `CC[C@H](C)[C@H](N)C(=O)N[C@H]1CSSC[C@@H](C(=O)O)NC(=O)[C@H]([C@@H](C)CC)NC(=O)[C@@H]2CCCN2C(=O)[C@H](CC(C)C)NC(=O)[C@H](Cc2ccccc2)NC(=O)[C@@H]2CCCN2C(=O)[C@@H]2CCCN2C(=O)[C@H](Cc2ccc(O)cc2)NC(=O)[C@@H]2CCCN2C1=O` [Compound 2, chujamide B] (H-ICPYPPFLPIC-OH; disulfide 2-11) here?
A: The IC50 was 17.2 µM.

Q: What about the “LC50, cytotoxicity toward K562” value [1] of the same molecule?
A: The value was 55.6 µM.

Q: What about the “LC50, cytotoxicity toward A549” value [2] of the same molecule?
A: The value was 26.4 µM.

Q: For `COc1cccc2c1C(=O)c1c(O)c3c(c(O)c1C2=O)C[C@@](O)(C(=O)CO)C[C@@H]3O[C@H]1C[C@H](N)[C@H](O)[C@H](C)O1` [doxorubicin], which “LC50, cytotoxicity toward K562” value [1] is on record?
A: The value was 1.5 µM.

Q: And the “LC50, cytotoxicity toward A549” value [2]?
A: Its value is 1.3 µM.

Q: With gombamide A as the molecule, how does the “cytotoxicity against K562 (in words)” value [4] read?
A: Its value is “exhibited cytotoxicity”.

Q: What about the “inhibitory activity against Na+/K+-ATPase (in words)” value [5] of the same molecule?
A: Its value is “inhibitory activity”.

Q: And the “cytotoxicity against A549 (in words)” value [6]?
A: Its value is “exhibited cytotoxicity”.
